In patent US20090018111A1, “Novel Antimicrobial Medicament” (priority 2004, published 2009):
Like-named read-outs stand apart in the source and are kept apart here.

Key:
Assay in all cases: Sensitivity test (agar dilution)
C. freundii GN346 = format: cell-based, Citrobacter freundii; conditions: Citrobacter freundii
How it was run: (§1)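 Strains were grown overnight at 37° C, brought to about 10^6 CFU/ml in gelatin-buffered saline, and ~5 μl inoculated onto MHA plates carrying two-fold dilution series of the test drug alone or in combination, following the Japan Chemotherapeutic Society agar dilution standard.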

S. maltophilia IID1275 = format: cell-based, Stenotrophomonas maltophilia; conditions: Stenotrophomonas maltophilia
How it was run: as §1

M. catarrhalis ATCC25238 = format: cell-based, Moraxella catarrhalis; conditions: Moraxella catarrhalis
How it was run: as §1

M. catarrhalis ATCC8176 = format: cell-based, Moraxella catarrhalis; conditions: Moraxella catarrhalis
How it was run: as §1

**Q.** Which MIC (C. freundii GN346; GN346, Concomitant (MEPM:SM = 1:2), read-out: MIC) does the source give for `C[C@H]1C=C(c2csc(SC3=C(C(=O)O)N4C(=O)[C@H]([C@@H](C)O)[C@H]4[C@H]3C)n2)CN1` [SM, (4R,5S,6S)-6-[(1R)-1-Hydroxyethyl]-4-methyl-3-({4-[(5S)-5-methyl-2,5-dihydro-1H-pyrrol-3-yl]-1,3-thiazol-2-yl}sulfanyl)-7-oxo-1-azabicyclo[3.2.0]hept-2-ene-2-carboxylic acid] here?
**A.** 0.063 µg/mL

**Q.** What about the MIC (C. freundii GN346; GN346, Concomitant (MEPM:SM = 1:4), read-out: MIC) of the same compound?
**A.** 0.125 µg/mL

**Q.** And the MIC (C. freundii GN346; GN346, Concomitant (PAPM:SM = 1:1), C. freundii GN346, read-out: MIC concomitant)?
**A.** 0.25 µg/mL

**Q.** What about the MIC (C. freundii GN346; GN346, Concomitant (PIPC:SM = 1:1), C. freundii GN346, read-out: MIC concomitant) of the same compound?
**A.** 8 µg/mL

**Q.** And the MIC (C. freundii GN346; GN346, Concomitant drug (MEPM:SM = 2:1), read-out: MIC)?
**A.** 0.016 µg/mL

**Q.** What about the MIC (C. freundii GN346; GN346, alone, read-out: MIC) of the same compound?
**A.** 8 µg/mL

**Q.** What about the MIC (C. freundii GN346; GN346, drug alone, C. freundii GN346, read-out: MIC alone) of the same compound?
**A.** 8 µg/mL

**Q.** And the MIC (S. maltophilia IID1275; IID1275, Concomitant (AZT:SM = 1:1), S. maltophilia IID1275, read-out: MIC concomitant)?
**A.** > 32 µg/mL

**Q.** And the MIC (S. maltophilia IID1275; IID1275, Concomitant (BIPM:SM = 1:1), S. maltophilia IID1275, read-out: MIC concomitant)?
**A.** > 32 µg/mL

**Q.** And the MIC (S. maltophilia IID1275; IID1275, Concomitant (CAZ:SM = 1:1), S. maltophilia IID1275, read-out: MIC concomitant)?
**A.** > 32 µg/mL

**Q.** What about the MIC (S. maltophilia IID1275; IID1275, Concomitant (CPFX:SM = 1:1), S. maltophilia IID1275, read-out: MIC concomitant) of the same compound?
**A.** 1 µg/mL

**Q.** And the MIC (S. maltophilia IID1275; IID1275, Concomitant (DRPM:SM = 1:1), S. maltophilia IID1275, read-out: MIC concomitant)?
**A.** > 32 µg/mL

**Q.** And the MIC (S. maltophilia IID1275; IID1275, Concomitant (IPM:SM = 1:1), read-out: MIC)?
**A.** > 32 µg/mL

**Q.** What about the MIC (S. maltophilia IID1275; IID1275, Concomitant (MEPM:SM = 1:1), read-out: MIC) of the same compound?
**A.** > 32 µg/mL

**Q.** And the MIC (S. maltophilia IID1275; IID1275, Concomitant (MEPM:SM = 1:2), read-out: MIC)?
**A.** > 64 µg/mL

**Q.** What about the MIC (S. maltophilia IID1275; IID1275, Concomitant (MEPM:SM = 1:4), read-out: MIC) of the same compound?
**A.** > 128 µg/mL

**Q.** What about the MIC (S. maltophilia IID1275; IID1275, Concomitant (PAPM:SM = 1:1), S. maltophilia IID1275, read-out: MIC concomitant) of the same compound?
**A.** > 32 µg/mL

**Q.** What about the MIC (S. maltophilia IID1275; IID1275, Concomitant (PIPC:SM = 1:1), S. maltophilia IID1275, read-out: MIC concomitant) of the same compound?
**A.** > 32 µg/mL

**Q.** And the MIC (S. maltophilia IID1275; IID1275, Concomitant drug (MEPM:SM = 2:1), read-out: MIC)?
**A.** > 16 µg/mL

**Q.** What about the MIC (S. maltophilia IID1275; IID1275, drug alone, S. maltophilia IID1275, read-out: MIC alone) of the same compound?
**A.** > 32 µg/mL

**Q.** And the MIC (M. catarrhalis ATCC25238; ATCC25238, Concomitant (AZT:SM = 1:1), M. catarrhalis ATCC25238, read-out: MIC concomitant)?
**A.** ≤ 0.002 µg/mL

**Q.** What about the MIC (M. catarrhalis ATCC25238; ATCC25238, Concomitant (BIPM:SM = 1:1), M. catarrhalis ATCC25238, read-out: MIC concomitant) of the same compound?
**A.** ≤ 0.002 µg/mL

**Q.** What about the MIC (M. catarrhalis ATCC25238; ATCC25238, Concomitant (CAZ:SM = 1:1), M. catarrhalis ATCC25238, read-out: MIC concomitant) of the same compound?
**A.** ≤ 0.002 µg/mL

**Q.** What about the MIC (M. catarrhalis ATCC25238; ATCC25238, Concomitant (CPFX:SM = 1:1), M. catarrhalis ATCC25238, read-out: MIC concomitant) of the same compound?
**A.** ≤ 0.002 µg/mL

**Q.** What about the MIC (M. catarrhalis ATCC25238; ATCC25238, Concomitant (DRPM:SM = 1:1), M. catarrhalis ATCC25238, read-out: MIC concomitant) of the same compound?
**A.** ≤ 0.002 µg/mL

**Q.** What about the MIC (M. catarrhalis ATCC25238; ATCC25238, Concomitant (IPM:SM = 1:1), read-out: MIC) of the same compound?
**A.** ≤ 0.002 µg/mL

**Q.** What about the MIC (M. catarrhalis ATCC25238; ATCC25238, Concomitant (MEPM:SM = 1:1), read-out: MIC) of the same compound?
**A.** ≤ 0.016 µg/mL

**Q.** And the MIC (M. catarrhalis ATCC25238; ATCC25238, Concomitant (MEPM:SM = 1:2), read-out: MIC)?
**A.** ≤ 0.031 µg/mL

**Q.** What about the MIC (M. catarrhalis ATCC25238; ATCC25238, Concomitant (MEPM:SM = 1:4), read-out: MIC) of the same compound?
**A.** ≤ 0.063 µg/mL

**Q.** And the MIC (M. catarrhalis ATCC25238; ATCC25238, Concomitant (PAPM:SM = 1:1), M. catarrhalis ATCC25238, read-out: MIC concomitant)?
**A.** ≤ 0.002 µg/mL

**Q.** What about the MIC (M. catarrhalis ATCC25238; ATCC25238, Concomitant (PIPC:SM = 1:1), M. catarrhalis ATCC25238, read-out: MIC concomitant) of the same compound?
**A.** ≤ 0.002 µg/mL

**Q.** What about the MIC (M. catarrhalis ATCC25238; ATCC25238, Concomitant drug (MEPM:SM = 2:1), read-out: MIC) of the same compound?
**A.** ≤ 0.008 µg/mL

**Q.** And the MIC (M. catarrhalis ATCC25238; ATCC25238, drug alone, M. catarrhalis ATCC25238, read-out: MIC alone)?
**A.** ≤ 0.002 µg/mL

**Q.** What about the MIC (M. catarrhalis ATCC8176; ATCC8176, Concomitant (AZT:SM = 1:1), M. catarrhalis ATCC8176, read-out: MIC concomitant) of the same compound?
**A.** ≤ 0.002 µg/mL

**Q.** What about the MIC (M. catarrhalis ATCC8176; ATCC8176, Concomitant (BIPM:SM = 1:1), M. catarrhalis ATCC8176, read-out: MIC concomitant) of the same compound?
**A.** ≤ 0.002 µg/mL

**Q.** What about the MIC (M. catarrhalis ATCC8176; ATCC8176, Concomitant (CAZ:SM = 1:1), M. catarrhalis ATCC8176, read-out: MIC concomitant) of the same compound?
**A.** ≤ 0.002 µg/mL

**Q.** And the MIC (M. catarrhalis ATCC8176; ATCC8176, Concomitant (CPFX:SM = 1:1), M. catarrhalis ATCC8176, read-out: MIC concomitant)?
**A.** ≤ 0.002 µg/mL

**Q.** What about the MIC (M. catarrhalis ATCC8176; ATCC8176, Concomitant (DRPM:SM = 1:1), M. catarrhalis ATCC8176, read-out: MIC concomitant) of the same compound?
**A.** ≤ 0.002 µg/mL

**Q.** What about the MIC (M. catarrhalis ATCC8176; ATCC8176, Concomitant (IPM:SM = 1:1), read-out: MIC) of the same compound?
**A.** ≤ 0.002 µg/mL

**Q.** And the MIC (M. catarrhalis ATCC8176; ATCC8176, Concomitant (MEPM:SM = 1:1), read-out: MIC)?
**A.** ≤ 0.016 µg/mL

**Q.** What about the MIC (M. catarrhalis ATCC8176; ATCC8176, Concomitant (MEPM:SM = 1:2), read-out: MIC) of the same compound?
**A.** ≤ 0.031 µg/mL

**Q.** What about the MIC (M. catarrhalis ATCC8176; ATCC8176, Concomitant (MEPM:SM = 1:4), read-out: MIC) of the same compound?
**A.** ≤ 0.063 µg/mL

**Q.** And the MIC (M. catarrhalis ATCC8176; ATCC8176, Concomitant (PAPM:SM = 1:1), M. catarrhalis ATCC8176, read-out: MIC concomitant)?
**A.** ≤ 0.002 µg/mL

**Q.** And the MIC (M. catarrhalis ATCC8176; ATCC8176, Concomitant (PIPC:SM = 1:1), M. catarrhalis ATCC8176, read-out: MIC concomitant)?
**A.** ≤ 0.002 µg/mL

**Q.** What about the MIC (M. catarrhalis ATCC8176; ATCC8176, Concomitant drug (MEPM:SM = 2:1), read-out: MIC) of the same compound?
**A.** ≤ 0.008 µg/mL

**Q.** And the MIC (M. catarrhalis ATCC8176; ATCC8176, drug alone, M. catarrhalis ATCC8176, read-out: MIC alone)?
**A.** ≤ 0.002 µg/mL
